Results: patent US5122448A, “Assay of anti-Epstein-Barr virus nuclear antigen antibodies with synthetic polypeptides” (Scripps Clinic and Research Foundation, priority 1990, dated 1992)
Residues, ends and D or L forms follow the SMILES beside them.

What was measured:
[1] = Circular dichroism spectroscopy; assay type: physicochemical; conditions: 1 mg/ml in phosphate buffered saline
Description: The conformational properties of the polypeptides were investigated to elucidate any secondary structure that might be necessary for polypeptide immunoreaction with human anti-EBNA antibodies. The polypeptides were dissolved at a concentration of 1 mg/ml in phosphate-buffered saline (PBS). Spectra were taken using 1 ml samples in a Cary 61 spectropolarimeter (Cary Instruments, Applied Physics Corp., Monrovia, Calif.) interfaced and automated with a Digital Equipment Corporation 11/02 computer (Digital Equipment Corporation, Maynard, Mass.).

[2] = test system: rabbit anti-polypeptide antibody to polypeptide P62; experiment: Competition ELISA with rabbit anti-polypeptide P62 antibody on solid phase P62; assay type: binding; conditions: antibody first incubated with competing polypeptide
Description: Anti-peptide antibody binding and inhibition studies were carried out by an enzyme-linked immunosorbent assay (ELISA) as described below.
Contact between the wells and antigen-containing solution was maintained for a predetermined time, typically 15 minutes, and at 20 degrees C., to form an antigen-coated solid phase. The solid and liquid phases were separated and the wells were washed three times with BBS.
Rabbit and human sera (body sample aliquots) were assayed for anti-polypeptide activity by adding 100 microliters of a serum diluted 1:20 in BBS per well to form a solid/liquid phase composition. Contact between the diluted sera and the antigen-coated solid phase was maintained for a predetermined time such as 1 hour, and at 20 degrees C., for an immunoreactant to form. The solid and liquid phases were separated, and the solid phase; i.e., antigen-coated, immunoreactant-containing wells, was then washed three times with BBS.

EBNA = experiment: Immunoblot of WI-L2 whole cell extracts with rabbit antipeptide antisera, blocking by polypeptide; assay type: binding, Epstein-Barr virus
Description: Exemplary receptor molecules containing antibody combining sites of this invention raised in rabbits to the polypeptides shown in Table 1 were studied using the immunoblotting procedures of Towbin, et. al., Proc. Natl. Acad. Sci., U.S.A., 76:4350-4354 (1979) and Billings, et. al., Proc. Natl. Acad. Sci., U.S.A., 80:7104-7108 (1983). Further details are provided in the Materials and Methods section (III).
Extracts of EBNA producing and non-producing (control) cells were prepared to determine if receptor molecules of this invention were useful for diagnosing EBNA expression. Cells from cultures described hereinabove were washed in phosphate-buffered saline (PBS; 150 mM NaCl, 10 mM sodium phosphate, pH 7.4) containing 0.2 mM phenylmethylsulfonyl fluoride, swollen for 5 minutes in reticulocyte standard buffer (RSB; 10 mM NaCl, 10 mM Tris-HCl, pH 7.4, 1.5 mM MgCl2, 0.2 mM phenylmethylsulfonyl fluoride), and lysed by sonication in 3-5 volumes of RBS adjusted to 0.2-0.35 molar (M) NaCl. After 30 minutes on ice, the sonicate was centrifuged at 10,000×g for 15 minutes to remove cellular debris.
Cell extracts obtained above were assayed for EBNA using human sera known to contain anti-EBNA antibodies or exemplary receptor molecules of this invention. The extracts were either concentrated by precipitation with 2 volumes of ethanol at -20 degrees C. for about 18 hours, and were then dissolved in sample buffer [SB; 10% glycerol, 2% 2-mercaptoethanol, 1% sodium dodecyl sulfate (SDS), 0.002% bromphenol blue, 40 mM Tris-HCl (pH 7.4)] or diluted 1:6 in sample buffer for SDS-polyacrylamide gel electrophoresis (SDS-PAGE). 7.5% Polyacrylamide gels were cast and run according to the procedure of Laemmli, Nature, […] (1970), applying 50 to 200 micrograms of total protein per lane. […]
Anti-peptide antibodies bound to EBNA protein were detected by reacting the blots with an indicating means. […]

anti-EBNA antibodies = experiment: ELISA with polypeptide as solid phase antigen, anti-polypeptide activity of sera (OD405); assay type: binding, human; conditions: for OD405 × 10^3 obtained with Patient Antibodies to peptide: serum 1:20
Description: Briefly, microtiter wells (Costar, #3590, Cambridge, MA) were typically coated with individual polypeptides as antigens by adding 100 microliters (ul) of BBS [10 millimoler (mM) sodium borate (pH 8.3), 150 mM NaCl] containing polypeptide at a concentration of 10 micrograms per milliliter (ug/ml). Contact between the wells and antigen-containing solution was maintained for a predetermined time, typically 15 minutes, and at 20 degrees C., to form an antigen-coated solid phase. The solid and liquid phases were separated and the wells were washed three times with BBS.
Non-specific binding sites were blocked by admixing 200 microliters of 1% bovine serum albumin (BSA) in each well to form another solid/liquid phase admixture, and maintaining that solid/liquid phase admixture for 30 minutes, at 20 degrees C. The phases were separated and excess, unbound BSA was removed by washing three times with BBS.
The antibodies in human sera that immunoreacted with an adsored polypeptide were detected using an indicating means comprising alkaline phosphatase-conjugated goat anti-human Ig antibody (Tago, Burlington, Calif.). The antibodies in rabbit sera that immunoreacted with an adsorbed polypeptide were detected using an indicating means comprising alkaline phosphatase-conjugated goat anti-rabbit Ig antibody (Kirkegard & Perry Laboratories, Inc., Gaithersburg, MD). In either instance, 100 microliters of the indicating antibody diluted 1:300 in BBS were added per well to form a further solid/liquid phase composition. This solid-liquid phase composition was maintained for a predetermined time, one hour, for the formation of a reaction product between the human antibodies bound to the solid phase and the indicating means, and at 20 degrees C. The phases were separated, and the solid phase was washed 3 times with BBS.
Alkaline phosphatase-conjugated antibody bound to polypeptide specific antibody was detected by spectrophotometrically measuring the enzymatic hydrolysis of p-nitrophenyl phosphate to p-nitrophenol. Briefly, 100 microliters of p-nitrophenyl phosphate [1 milligram per milliliter in 2 mM MgCl 2, (pH 9.8), 50 mM sodium carbonate] were added to each well. The enzymatic reaction was allowed to proceed 1 hour and then the optical density at 405 nm was determined in a [sequence] spectrophotometer available from Flow Laboratories, Inglewood, Calif.

C[C@H](NC(=O)CNC(=O)CNC(=O)[C@H](C)NC(=O)CNC(=O)[C@H](C)NC(=O)CNC(=O)CNC(=O)CN)C(=O)NCC(=O)N[C@@H](C)C(=O)NCC(=O)NCC(=O)NCC(=O)NCC(=O)N[C@@H](CCCNC(=N)N)C(=O)O [Polypeptide P60, H--Gly--Gly--Gly--Ala--Gly--Ala--Gly--Gly--Ala--Gly--Ala--Gly--Gly--Gly--Gly--Arg--OH] (H-GGGAGAGGAGAGGGGR-OH)
Conformation by circular dichroism spectrum [1]: very similar spectra | Inhibition of binding of anti-polypeptide P62 to polypeptide P62 in the solid phase [2]: 81% | Immunoreactivity of anti-P62 serum with the EBNA band after preincubation with polypeptide (EBNA; serum 1:10, 40 ug/ml polypeptide P60, one hour): inhibited | Recognition of EBNA by anti-P60 serum after preincubation with polypeptide (EBNA; serum 1:50, 40 ug/ml polypeptide, one hour): inhibited | Reactivity of sera of EBV non-immune donors to polypeptide (anti-EBNA antibodies; 27 EBV non-immune (VCA-) donors): None of the sera displayed significant reactivity | Number of anti-EBNA positive sera positive against (bound to) polypeptide (anti-EBNA antibodies; 91 ACIF anti-EBNA positive sera, 1:20 dilution): 91 | Titer of PSS patients versus normals (anti-EBNA antibodies; Progressive Systemic Schlerosis patients): relatively higher average titer | Reaction of VCA+ sera with polypeptide (anti-EBNA antibodies; clinically normal VCA+ individuals, two dilutions): all of the VCA^+ individuals were positive | Reaction of VCA- sera with polypeptide (anti-EBNA antibodies; panel of 19 VCA- sera): None of the VCA^- sera were found to react positively | OD405 × 10^3 obtained with Patient Antibodies to peptide (anti-EBNA antibodies; MV post-mononucleosis): 162 OD405 × 10^3 | OD405 × 10^3 obtained with Patient Antibodies to peptide (anti-EBNA antibodies; MV pre-mononucleosis): 72 OD405 × 10^3 | OD405 × 10^3 obtained with Patient Antibodies to peptide (anti-EBNA antibodies; SB post-mononucleosis): 115 OD405 × 10^3 | OD405 × 10^3 obtained with Patient Antibodies to peptide (anti-EBNA antibodies; SB pre-mononucleosis): 51 OD405 × 10^3 | OD405 × 10^3 obtained with Patient Antibodies to peptide (anti-EBNA antibodies; VCA+ Normal 1): 154 OD405 × 10^3 | OD405 × 10^3 obtained with Patient Antibodies to peptide (anti-EBNA antibodies; VCA+ Normal 2): 145 OD405 × 10^3 | OD405 × 10^3 obtained with Patient Antibodies to peptide (anti-EBNA antibodies; VCA- Normals (n = 27), average ± one standard deviation): 45 ± 18 OD405 × 10^3
